# Positions count from the first letter of the chain named. Several values for one entry are separate records, joined by “and”; a condition that tells them apart may be missing. Equal values may be shown once. Read-outs that look alike come from different tables or passages of the source.
# Columns and labels:
# Type in all cases: cell-based
# [1] = molecular target: T1, hTA1 C13S (Homo sapiens, UniProt Q96RJ0, C13S); assay: GloSensor cAMP accumulation assay, C13S mutant; settings: for C13S - Normalized Luminescence Counts (N=2): log[Compound], single wells
# T1 construct: expressed in transfected cells; host or cells: HEK293T
# T1 sequence (Q96RJ0 1-339 C13S): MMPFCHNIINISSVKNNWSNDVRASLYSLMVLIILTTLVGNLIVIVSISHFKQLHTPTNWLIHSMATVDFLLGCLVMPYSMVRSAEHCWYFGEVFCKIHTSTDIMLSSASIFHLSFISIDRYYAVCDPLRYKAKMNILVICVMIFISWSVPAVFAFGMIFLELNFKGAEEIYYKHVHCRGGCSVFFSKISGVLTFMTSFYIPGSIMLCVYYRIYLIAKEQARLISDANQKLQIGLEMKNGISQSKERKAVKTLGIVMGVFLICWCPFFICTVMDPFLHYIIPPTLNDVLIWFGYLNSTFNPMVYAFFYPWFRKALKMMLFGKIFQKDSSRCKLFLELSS
# [2] = molecular target: T2, hTA1 C178S (Homo sapiens, UniProt Q96RJ0, C178S); assay: GloSensor cAMP accumulation assay, C178S mutant; settings: for C178S - Normalized Luminescence Counts (N=2): log[Compound], single replicates
# T2 construct: expressed in transfected cells; host or cells: HEK293T
# T2 sequence (Q96RJ0 1-339 C178S): T1 sequence (Q96RJ0 1-339 C13S) with S13C, C178S
# [3] = molecular target: T3, hTA1 W264F (Homo sapiens, UniProt Q96RJ0, W264F); assay: GloSensor cAMP accumulation assay, W264F mutant;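 further: cells transiently transfected with receptor plus GloSensor, luminescence read 30 min after agonist addition at room temperature, concentration-response curves fitted by log(agonist) vs response regression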
# T3 construct: expressed in transfected cells; host or cells: HEK293T
# T3 sequence (Q96RJ0 1-339 W264F): T1 sequence (Q96RJ0 1-339 C13S) with S13C, W264F
# [4] = molecular target: T4, hTA1 C5S (Homo sapiens, UniProt Q96RJ0, C5S); assay: GloSensor cAMP accumulation assay, C5S mutant; settings: for C5S - Normalized Luminescence Counts (N=2): log[Compound], single wells
# T4 construct: expressed in transfected cells; host or cells: HEK293T
# T4 sequence (Q96RJ0 1-339 C5S): T1 sequence (Q96RJ0 1-339 C13S) with C5S, S13C
# [5] = molecular target: T5, hTA1 V184P (Homo sapiens, UniProt Q96RJ0, V184P); assay: GloSensor cAMP accumulation assay, V184P mutant; settings: for cAMP accumulation response, single replicate values (source data, Supplementary Figure 5): hTA1 V184P (N=2), log[Compound]
# T5 construct: expressed in transfected cells; host or cells: HEK293T
# T5 sequence (Q96RJ0 1-339 V184P): T1 sequence (Q96RJ0 1-339 C13S) with S13C, V184P
# [6] = W246F mutant (so in the source) minus WT average
smiles,measurement,setting,value
"NCCc1ccc(O)cc1 [TYR, tyramine]",ΔpEC50 values (each mutant value - WT average),[1]; C13S,-0.3688 and -0.3329
same,Emax values,"[1]; C13S, Mean of fit per experiment",110.911
same,Emax,"[1]; C13S, Mean of fit per experiment, read-out: Emax values",93.7%
same,EC50,"[1]; C13S, n=2, read-out: EC50",931 nM
same,Emax,"[1]; C13S, n=2, read-out: Span ± SEM (Emax normalized to β-PEA)",102 ± 8.61%
same,EC50,"[1]; hTA1 C13S, mean of 3 replicates, one line per independent experiment, read-out: pEC50 values, Mean (converted)",970 nM and 893 nM
same,C13S - Normalized Luminescence Counts (N=2),[1]; M = -5,78.8304 and 97.2912 and 83.436 and 97.1609 and 112.12 and 105.729
same,C13S - Normalized Luminescence Counts (N=2),[1]; M = -5.522,59.6843 and 75.6711 and 68.2867 and 72.4375 and 86.5575 and 83.5764
same,C13S - Normalized Luminescence Counts (N=2),[1]; M = -6,42.8222 and 56.3728 and 40.1958 and 58.5139 and 61.7985 and 54.8367
same,C13S - Normalized Luminescence Counts (N=2),[1]; M = -6.522,23.1813 and 24.6658 and 21.4304 and 27.8641 and 32.7195 and 30.988
same,"ΔpEC50 values (each mutant value - WT average), Mean","[2]; C178S, each row one experiment (N=2), 3 replicates",0.02169 and 0.1822
same,EC50,"[2]; C178S, each row one experiment (N=2), 3 replicates, read-out: pEC50 values, Mean (converted)",395 nM and 273 nM
same,EC50,"[2]; C178S, n=2, read-out: EC50",328 nM
same,Emax,"[2]; C178S, n=2, read-out: Span ± SEM (Emax normalized to β-PEA)",98.4 ± 1.77%
same,"Emax values, Mean","[2]; C178S, β-PEA = 100, each row one experiment (N=2), 3 replicates",100.127
same,Emax,"[2]; C178S, β-PEA = 100, each row one experiment (N=2), 3 replicates, read-out: Emax values, Mean",96.6%
same,C178S - Normalized Luminescence Counts (N=2),[2]; M = -5,91.979 and 95.8576 and 102.026 and 75.3904 and 102.974 and 107.581
same,C178S - Normalized Luminescence Counts (N=2),[2]; M = -5.522,87.8668 and 77.3994 and 76.8387 and 82.4508 and 101.179 and 88.1949
same,C178S - Normalized Luminescence Counts (N=2),[2]; M = -6,67.8199 and 64.4086 and 66.1843 and 84.2459 and 87.7162 and 94.2082
same,C178S - Normalized Luminescence Counts (N=2),[2]; M = -6.522,42.5859 and 50.2963 and 40.4364 and 48.0464 and 47.119 and 50.6791
same,C178S - Normalized Luminescence Counts (N=2),[2]; M = -7,17.0716 and 19.2212 and 22.0717 and 25.7583 and 28.0918 and 27.3439
same,C178S - Normalized Luminescence Counts (N=2),[2]; M = -7.522,4.922 and 5.576 and 4.735 and 10.3511 and 8.496 and 10.8597
same,C178S - Normalized Luminescence Counts (N=2),[2]; M = -8,0.8565 and 3.099 and 2.0247 and 3.141 and 5.295 and 4.428
same,C178S - Normalized Luminescence Counts (N=2),[2]; M = -8.522,-0.4052 and -0.03139 and 0.3892 and 0.9572 and 2.034 and 4.517
same,C178S - Normalized Luminescence Counts (N=2),[2]; M = -9,-1.013 and -1.2 and 0.1555 and -0.5985 and 0.02978 and 0.3589
same,C178S - Normalized Luminescence Counts (N=2),[2]; M = -9.522,-0.5454 and -1.1529 and -1.2 and -0.9575 and 1.615 and 1.376
same,C178S - Normalized Luminescence Counts (N=2),[2]; M = -10,-0.4052 and -0.07812 and -0.966 and 0.5982 and 1.645 and 1.346
same,C178S - Normalized Luminescence Counts (N=2),[2]; M = -10.522,-0.7791 and -0.3118 and -0.5921 and -2.214 and -0.2395 and -1.047
same,C178S - Normalized Luminescence Counts (N=2),[2]; M = -11,-0.8258 and -0.3585 and -1.106 and 0.08961 and 2.782 and 2.932
same,C178S - Normalized Luminescence Counts (N=2),[2]; M = -11.522,-0.1716 and 0.1555 and 0.1088 and 1.047 and 3.051 and 2.303
same,C178S - Normalized Luminescence Counts (N=2),[2]; M = -12,-0.9193 and -0.3118 and -0.6389 and 0.6281 and 2.423 and 2.214
same,C178S - Normalized Luminescence Counts (N=2),[2]; M = -12.522,0.2023 and -0.07812 and -0.03139 and -1.077 and 1.944 and 2.603
same,ΔEmax values (each mutant value - WT average),[3]; [6],2.816
same,ΔpEC50 values (each mutant value - WT average),[3]; [6],-1.54 and -1.2519
same,EC50,"[3]; W246F mutant (so in the source), each line an independent experiment, 3 replicates, read-out: pEC50 values (Mean) (converted)",14400 nM and 7410 nM
same,"Emax values, Mean","[3]; W246F mutant (so in the source), β-PEA = 100, each line an independent experiment, 3 replicates",99.2183
same,Emax,"[3]; W246F mutant (so in the source), β-PEA = 100, each line an independent experiment, 3 replicates, read-out: Emax values (Mean)",102%
same,EC50,"[3]; W264F, n=2, read-out: EC50",10300 nM
same,Emax,"[3]; W264F, n=2, read-out: Span ± SEM (Emax normalized to β-PEA)",101 ± 1.29%
same,EC50,"[4]; C5S, n=2, read-out: EC50",418 nM
same,Emax,"[4]; C5S, n=2, read-out: Span ± SEM (Emax normalized to β-PEA)",97.4 ± 4.98%
same,"ΔpEC50 values (each mutant value - WT average), Mean",[4]; hTA1 C5S minus WT average,0.08447 and -0.09146
same,EC50,"[4]; hTA1 C5S, mean of 3 replicates, one line per independent experiment, read-out: pEC50 values, Mean (converted)",342 nM and 512 nM
same,"Emax values, Mean","[4]; hTA1 C5S, β-PEA = 100, mean of 3 replicates, one line per independent experiment",92.4348
same,Emax,"[4]; hTA1 C5S, β-PEA = 100, mean of 3 replicates, one line per independent experiment, read-out: Emax values, Mean",102%
same,C5S - Normalized Luminescence Counts (N=2),[4]; M = -5,102.862 and 111.578 and 98.7984 and 85.7838 and 116.923 and 74.2532
same,C5S - Normalized Luminescence Counts (N=2),[4]; M = -5.522,86.6512 and 89.3832 and 85.861 and 68.3844 and 81.1578 and 69.9034
same,C5S - Normalized Luminescence Counts (N=2),[4]; M = -6,78.4779 and 69.4918 and 73.443 and 62.6536 and 54.2301 and 61.4799
same,C5S - Normalized Luminescence Counts (N=2),[4]; M = -6.522,44.8815 and 51.1131 and 50.1196 and 36.2784 and 34.207 and 33.0332
same,C5S - Normalized Luminescence Counts (N=2),[4]; M = -7,29.0315 and 24.8319 and 26.4576 and 17.7742 and 18.5337 and 19.2242
same,C5S - Normalized Luminescence Counts (N=2),[4]; M = -7.522,7.6273 and 8.959 and 8.553 and 6.382 and 5.3461 and 5.829
same,reduction in potency vs wild type,[5]; V184P,4 fold
same,EC50,"[5]; V184P, n=2, read-out: EC50",1490 nM
same,Emax,"[5]; V184P, n=2, read-out: Span ± SEM (Emax normalized to β-PEA)",105 ± 5.68%
same,"cAMP accumulation response, single replicate values (source data, Supplementary Figure 5)",[5]; M = -5,66.7204 and 110.557 and 88.2354 and 80.832 and 102.751 and 95.962
same,"cAMP accumulation response, single replicate values (source data, Supplementary Figure 5)",[5]; M = -5.522,68.2965 and 82.5176 and 84.3869 and 52.6087 and 59.3978 and 71.1332
same,"cAMP accumulation response, single replicate values (source data, Supplementary Figure 5)",[5]; M = -6,47.9177 and 50.0802 and 42.1633 and 41.1642 and 31.9504 and 31.2715
same,"cAMP accumulation response, single replicate values (source data, Supplementary Figure 5)",[5]; M = -6.522,19.512 and 25.4864 and 24.1669 and 21.0878 and 21.7667 and 21.1848
same,"cAMP accumulation response, single replicate values (source data, Supplementary Figure 5)",[5]; M = -7,8.113 and 10.3856 and 10.972 and 5.085 and 4.018 and 3.436
same,"cAMP accumulation response, single replicate values (source data, Supplementary Figure 5)",[5]; M = -7.522,1.736 and 1.149 and 1.113 and 1.69 (2×) and 1.5934
same,"cAMP accumulation response, single replicate values (source data, Supplementary Figure 5)",[5]; M = -8,1.479 and 2.432 and 2.102 and -0.4433 and -0.3463 and 0.1386
same,"cAMP accumulation response, single replicate values (source data, Supplementary Figure 5)",[5]; M = -8.522,0.0496 and 0.8926 and 2.065 and -0.3463 and 0.4296 and -0.05538
same,"cAMP accumulation response, single replicate values (source data, Supplementary Figure 5)",[5]; M = -9,-0.2803 and 1.809 and 0.9293 and -0.4433 and -0.2494 (2×)
same,"cAMP accumulation response, single replicate values (source data, Supplementary Figure 5)",[5]; M = -9.522,-0.3536 and -0.06036 and -0.6835 and -0.05538 (2×) and 0.04161
same,"cAMP accumulation response, single replicate values (source data, Supplementary Figure 5)",[5]; M = -10,0.4894 and -0.09701 and -0.5368 and 0.04161 and -0.3463 and -0.05538
same,"cAMP accumulation response, single replicate values (source data, Supplementary Figure 5)",[5]; M = -10.522,-0.4269 and 0.4528 and -0.94 and 0.04161 and 0.5265 and -0.05538
same,"cAMP accumulation response, single replicate values (source data, Supplementary Figure 5)",[5]; M = -11,0.1229 and 0.4528 and 0.0496 and -0.2494 and -0.4433 and 0.1386
same,"cAMP accumulation response, single replicate values (source data, Supplementary Figure 5)",[5]; M = -11.522,-0.2436 and 1.039 and -0.2803 and 0.04161 and 0.5265 and 0.3326
same,"cAMP accumulation response, single replicate values (source data, Supplementary Figure 5)",[5]; M = -12,-0.1337 and -0.5368 and -0.7568 and 0.1386 and 0.5265 (2×)
same,"cAMP accumulation response, single replicate values (source data, Supplementary Figure 5)",[5]; M = -12.522,1.113 and 0.5994 and -0.5368 and 1.399 and 1.302 and 1.69
same,EC50,"[5]; hTA1 V184P mutant, Figure 3B source data, each grid row a separate experiment, 3 replicates, read-out: pEC50 values (Mean) (converted)",2180 nM and 1020 nM
same,"Emax values, Mean","[5]; hTA1 V184P mutant, β-PEA set to 100, each grid row a separate experiment, 3 replicates",99.5188
same,Emax,"[5]; hTA1 V184P mutant, β-PEA set to 100, each grid row a separate experiment, 3 replicates, read-out: Emax values (Mean)",111%

# From publication PMC10762035, “Molecular basis of human trace amine-associated receptor 1 activation” (Nature Communications, 2024)
